Experimental data as given in patent US10781181B2, “N-((het) arylmethyl)-heteroaryl-carboxamides compounds as plasma kallikrein inhibitors” (Kalvista Pharmaceuticals Limited, priority 2014, dated 2020).

Assays:
Human plasma kallikrein = Human plasma kallikrein (Homo sapiens (Human), UniProt P03952); assay: Determination of the IC50 for plasma kallikrein; type: biochemical; conditions: read-out: IC50 (human PKal)
Description: Determination of the IC50 for Plasma Kallikrein
(§1) Human plasma kallikrein (Protogen) was incubated at 25° C. with the fluorogenic substrate H-DPro-Phe-Arg-AFC and various concentrations of the test compound. Residual enzyme activity (initial rate of reaction) was determined by measuring the change in […] at 410 nm and the IC50 value for the test compound was determined.

Human KLK1 = Human KLK1 (Homo sapiens (Human), UniProt P06870); assay: Determination of the IC50 for KLK1; type: biochemical; conditions: human KLK1, 25° C., substrate H-DVal-Leu-Arg-AFC
Description: Determination of the IC50 for KLK1
as §1, with “KLK1 (Callbiochem)” for “plasma kallikrein (Protogen)”, “H-DVal-Leu-Arg-AFC” for “H-DPro-Phe-Arg-AFC”

Human FXIa = Human FXIa (Homo sapiens (Human), UniProt P03951); assay: Determination of the % inhibition for FXIa; type: biochemical; conditions: 40 μM of the test compound, human FXIa, 25° C.; read-out: % Inhibition @ 40 μM (human FXIa)
Description: Determination of the % Inhibition for FXIa
Human FXIa (Enzyme Research Laboratories) was incubated at 25° C. with the fluorogenic substrate Z-Gly-Pro-Arg-AFC and 40 μM of the test compound. Residual enzyme activity (initial rate of reaction) was determined by measuring the change in […].

[1] = Pharmacokinetics following a single oral dose in rats; type: in vivo; conditions: rat, male Sprague-Dawley rats, nominal 10 mg/kg in 10% DMSO/10% cremophor/80% SWFI, plasma, actual dose 7.6 mg/kg (Example 115), 8.4 mg/kg (Example 85)
Description: Pharmacokinetic studies of the compounds in Table 15 were performed to assess the pharmacokinetics following a single oral dose in male Sprague-Dawley rats. Two rats were given a single po dose of 5 mL/kg of a nominal 2 mg/mL (10 mg/kg) composition of test compound in 10% DMSO/10% cremophor/80% SWFI. Following dosing, blood samples were collected over a period of 24 hours. Sample times were 5, 15 and 30 minutes then 1, 2, 4, 6, 8 and 12 hours. Following collection, blood samples were centrifuged and the plasma fraction analysed for concentration of test compound by LCMS.

Sequence of Human plasma kallikrein (P03952 391-638): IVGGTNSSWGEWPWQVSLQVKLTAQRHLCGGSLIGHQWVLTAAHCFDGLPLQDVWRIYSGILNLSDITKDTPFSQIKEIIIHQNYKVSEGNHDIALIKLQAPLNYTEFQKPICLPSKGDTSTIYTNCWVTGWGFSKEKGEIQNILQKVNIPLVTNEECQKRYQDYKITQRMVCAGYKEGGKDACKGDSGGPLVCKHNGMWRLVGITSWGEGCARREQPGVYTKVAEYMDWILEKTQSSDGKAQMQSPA
Sequence of Human plasma kallikrein (P03952 20-390 partner): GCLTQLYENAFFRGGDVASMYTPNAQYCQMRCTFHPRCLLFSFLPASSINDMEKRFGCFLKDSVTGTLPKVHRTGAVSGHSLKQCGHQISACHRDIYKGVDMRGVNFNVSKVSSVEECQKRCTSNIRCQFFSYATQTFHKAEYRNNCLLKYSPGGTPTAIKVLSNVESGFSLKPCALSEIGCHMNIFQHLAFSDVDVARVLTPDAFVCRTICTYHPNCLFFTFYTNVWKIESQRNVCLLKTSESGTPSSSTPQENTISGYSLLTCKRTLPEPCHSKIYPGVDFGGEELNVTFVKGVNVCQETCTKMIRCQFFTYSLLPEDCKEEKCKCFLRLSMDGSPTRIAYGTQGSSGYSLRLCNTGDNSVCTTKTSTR
Sequence of Human KLK1 (P06870 25-262): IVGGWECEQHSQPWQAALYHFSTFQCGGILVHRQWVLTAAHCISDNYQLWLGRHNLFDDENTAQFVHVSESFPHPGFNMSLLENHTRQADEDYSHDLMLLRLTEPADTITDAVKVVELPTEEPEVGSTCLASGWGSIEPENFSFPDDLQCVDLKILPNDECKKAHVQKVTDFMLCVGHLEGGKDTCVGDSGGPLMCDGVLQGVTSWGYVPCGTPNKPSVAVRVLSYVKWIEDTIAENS
Sequence of Human FXIa (P03951 388-625 limits assumed): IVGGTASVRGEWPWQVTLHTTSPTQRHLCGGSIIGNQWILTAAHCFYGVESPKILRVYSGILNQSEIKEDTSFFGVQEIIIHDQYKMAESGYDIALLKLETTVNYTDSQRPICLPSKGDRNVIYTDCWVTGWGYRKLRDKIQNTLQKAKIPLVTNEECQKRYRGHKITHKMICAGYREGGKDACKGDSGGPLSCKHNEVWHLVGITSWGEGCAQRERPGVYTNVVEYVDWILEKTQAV
Sequence of Human FXIa (P03951 19-387 partner limits assumed): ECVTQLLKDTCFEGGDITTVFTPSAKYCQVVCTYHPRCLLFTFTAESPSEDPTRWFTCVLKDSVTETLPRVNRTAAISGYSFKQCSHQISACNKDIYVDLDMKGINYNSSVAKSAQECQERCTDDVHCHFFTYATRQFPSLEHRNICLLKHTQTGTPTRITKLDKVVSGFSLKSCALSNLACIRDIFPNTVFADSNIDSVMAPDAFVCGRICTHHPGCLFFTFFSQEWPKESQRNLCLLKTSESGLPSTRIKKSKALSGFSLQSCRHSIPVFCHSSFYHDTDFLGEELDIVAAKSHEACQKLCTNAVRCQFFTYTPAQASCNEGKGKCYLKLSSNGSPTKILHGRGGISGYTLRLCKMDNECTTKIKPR

Row | IC50 (Human plasma kallikrein) | IC50 (Human KLK1) | inhibition at 40 µM (Human FXIa) | Cmax [1] | Tmax [1] | SMILES
1 | 3.5 nM | > 40000 nM | 1% | 228 ng/mL | 45 min | Cc1cccn(Cc2ccc(Cn3cc(C(=O)NCCOc4cccc(Cl)c4)c(N)n3)cc2)c1=O [Example 85, 3-amino-N-[2-(3-chlorophenoxy)ethyl]-1-({4-[(3-methyl-2-oxopyridin-1-yl)methyl]phenyl}methyl)pyrazole-4-carboxamide]
2 | 5.6 nM | > 40000 nM |  | 538 ng/mL | 30 min | C[C@@H](CNC(=O)c1cn(Cc2ccc(Cn3ccccc3=O)cc2)nc1N)Oc1cccc(Cl)c1 [Example 115, 3-Amino-N-[(2S)-2-(3-chlorophenoxy)propyl]-1-({4-[(2-oxopyridin-1-yl)methyl]phenyl}methyl)-pyrazole-4-carboxamide]
